Laboratory results taken from patent US8754049B2, “Organic compound for the regulation of vectorial ion channels” (APEPTICO Forschung und Entwicklung GmbH, priority 2010, dated 2014).
Non-standard residues stand in square brackets, D forms with d. Residues, ends and D or L forms follow the SMILES beside them. Ahp = NCCCCCCC(=O)O

Experiments:
human A549 cells = assay: Microscopic observation of A549 cells after addition of compounds; assay type: cell-based; details: microscopic observation after addition of compound
Protocol: (§1) The electrophysiological experiments were performed on human A549 cells (ATTC No. CCL-185). A549 cells are human lung epithelial cells which are involved in the diffusion of water and electrolytes in the lungs. The cells were suspended in RPMI-1640 medium (Sigma-Aldrich, product number R6504) with 1% penicillin/streptomycin and 10% fetal calf serum, transferred into plastic cell culture vessels and cultivated in an incubator with 95% air and 5% CO2 at 37° C. The medium was changed 2 to 3 times per week. The cells double within approx. 22 hours, and a cell concentration of more than 7×10^4 cells per cm^2 was not exceeded.
The cells were microscopically observed.

[1] = molecular target: T1, epithelial sodium channels (Homo sapiens, UniProt P37088+P51168+P51170); assay: Patch-clamp measurement, whole cell configuration, amiloride-sensitive sodium current in A549 cells; assay type: cell-based; details: for Activity in comparison to a peptide SEQ ID NO: 10 CGQRETPEGAEKPWYC ("TIP-Peptid", Lucas et al. Science 1994 also WO00/09149): whole cell patch-clamp, A549 cells, amiloride-sensitive sodium current, relative to TIP peptide SEQ ID NO: 10
T1 construct: endogenous in cells; host or cells: A549 human lung epithelial cells (ATTC No. CCL-185)
T1 sequence (P51170 whole entry): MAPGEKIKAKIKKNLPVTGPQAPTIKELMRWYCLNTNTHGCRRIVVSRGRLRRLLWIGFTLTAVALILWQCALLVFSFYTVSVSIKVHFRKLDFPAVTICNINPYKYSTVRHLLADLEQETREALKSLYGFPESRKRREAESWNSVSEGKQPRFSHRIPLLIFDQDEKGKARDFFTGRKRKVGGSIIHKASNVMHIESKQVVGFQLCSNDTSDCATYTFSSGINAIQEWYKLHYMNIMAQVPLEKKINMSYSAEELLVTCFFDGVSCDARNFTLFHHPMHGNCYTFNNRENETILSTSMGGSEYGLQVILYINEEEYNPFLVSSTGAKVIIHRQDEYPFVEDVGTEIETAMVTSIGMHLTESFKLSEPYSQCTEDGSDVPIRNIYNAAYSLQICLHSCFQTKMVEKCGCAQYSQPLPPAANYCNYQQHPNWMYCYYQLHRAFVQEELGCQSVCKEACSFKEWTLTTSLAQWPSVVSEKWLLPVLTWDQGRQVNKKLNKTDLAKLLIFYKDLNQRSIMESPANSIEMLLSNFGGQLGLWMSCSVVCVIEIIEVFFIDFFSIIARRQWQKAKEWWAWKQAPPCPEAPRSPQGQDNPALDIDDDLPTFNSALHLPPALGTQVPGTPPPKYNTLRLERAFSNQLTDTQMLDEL
T1 sequence (P37088 whole entry): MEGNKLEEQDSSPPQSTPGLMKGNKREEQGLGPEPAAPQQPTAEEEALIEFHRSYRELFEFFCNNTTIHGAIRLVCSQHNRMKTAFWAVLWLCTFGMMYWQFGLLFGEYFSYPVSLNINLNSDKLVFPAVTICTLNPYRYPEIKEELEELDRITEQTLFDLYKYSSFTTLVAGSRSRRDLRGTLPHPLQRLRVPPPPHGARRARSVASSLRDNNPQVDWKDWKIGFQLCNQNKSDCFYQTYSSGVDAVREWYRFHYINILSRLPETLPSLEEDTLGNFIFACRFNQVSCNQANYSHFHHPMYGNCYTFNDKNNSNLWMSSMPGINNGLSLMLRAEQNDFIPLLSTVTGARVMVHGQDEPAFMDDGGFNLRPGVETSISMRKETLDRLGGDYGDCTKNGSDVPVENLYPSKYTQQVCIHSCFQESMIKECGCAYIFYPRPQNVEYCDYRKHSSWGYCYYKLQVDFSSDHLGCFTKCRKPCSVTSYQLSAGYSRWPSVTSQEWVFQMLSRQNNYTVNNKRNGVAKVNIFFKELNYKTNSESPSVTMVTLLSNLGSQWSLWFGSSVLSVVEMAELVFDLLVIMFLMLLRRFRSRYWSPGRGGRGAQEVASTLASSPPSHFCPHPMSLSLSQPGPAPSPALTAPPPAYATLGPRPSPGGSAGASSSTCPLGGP
T1 sequence (P51168 whole entry): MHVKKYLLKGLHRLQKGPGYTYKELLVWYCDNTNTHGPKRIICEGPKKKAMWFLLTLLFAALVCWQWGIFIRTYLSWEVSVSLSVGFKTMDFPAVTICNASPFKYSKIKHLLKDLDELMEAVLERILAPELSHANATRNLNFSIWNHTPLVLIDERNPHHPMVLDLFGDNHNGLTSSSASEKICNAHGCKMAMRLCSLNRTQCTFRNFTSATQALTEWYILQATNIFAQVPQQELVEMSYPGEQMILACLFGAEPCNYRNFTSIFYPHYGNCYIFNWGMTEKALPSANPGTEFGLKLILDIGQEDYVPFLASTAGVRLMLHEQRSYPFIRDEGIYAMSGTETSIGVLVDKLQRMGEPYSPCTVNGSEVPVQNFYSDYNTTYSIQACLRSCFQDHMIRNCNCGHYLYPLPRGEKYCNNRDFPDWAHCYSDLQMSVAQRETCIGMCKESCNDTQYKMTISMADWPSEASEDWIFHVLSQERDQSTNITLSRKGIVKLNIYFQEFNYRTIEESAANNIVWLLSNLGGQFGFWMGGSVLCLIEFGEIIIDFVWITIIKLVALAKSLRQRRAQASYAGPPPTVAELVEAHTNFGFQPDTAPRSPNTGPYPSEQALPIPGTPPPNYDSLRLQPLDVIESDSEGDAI
Source text: The detection of a vectorial regulation of ion channels by a compound may be effected according to a method common in laboratories, for example, according to Clunes M. T. et al., J. Physiolo. (2004) 557.3: 809-819), via patch-clamp experiments. For patch-clamp examinations of ion channels, a glass cannula is stretched thin and filled with a neutral buffer solution. The glass cannula (patch-clamp pipette) is carefully pressed onto an intact epithelial cell. A piece of membrane is located below the pipette. An electrical resistance is thereby produced between the interior of the pipette and the external solution. An electrode attached to a sensitive amplifier dips into the pipette solution.
A regulation of the vectorial epithelial ion channels is detected via a change in the current intensity with a constant voltage.
as §1
For the patch-clamp experiments, the cells were transferred onto small glass plates.
Macroscopic currents were discharged from A549 cells in the “whole cell” configuration of the “patch-clamp” technique (Hamill et al, Pflugers Arch. 1981, 391(2):85-100, 1981). For the current dissipations in the “whole cell” configuration, the following bath and electrode solutions were used:
Bath solution: 135 mM sodium methanesulfonate, 10 mM NaCl, 2.7 mM KCl, 1.8 mM CaCl2, 2 mM MgCl2, 5.5 mM glucose, and 10 mM HEPES, pH 7.4.
Electrode solution: 120 mM potassium methanesulfonate, 15 mM KCl, 6 mM NaCl, 1 mM Mg2ATP, 2 mM Na3ATP, 10 mM HEPES, and 0.5 mM EGTA (pH 7.2).
Cover slips with the cells cultivated thereon were transferred into a test bath with a capacity of 1 ml, fixed on the microscope table (Axiovert 100, 400-fold magnification), and the cells were superfused with the above-described bath solution. Thereupon, the current was discharged from a suitable cell (which adheres to the cover slip). For this purpose, a microelectrode filled with an electrolyte solution (glass capillary with a defined, heat-polished tip opening of about 1-3 μm, corresponding to a resistance of the electrode tip of […]) was placed on the cell and the membrane was sucked in so that a “Gigaohm seal” was formed between the membrane and the electrode in order to minimize the leakage current. In the “whole cell” configuration, the membrane was penetrated beneath the electrode tip so that the current flowing through all ion channels of the cell could be measured. Upon obtaining a Gigaohm seal, a defined membrane retaining potential was applied via a pre-amplifier (CV-4 Headstage, Axon Instruments) and an amplifier (Axopatch 1 D, Axon Instr.) and the current thereby flowing through the ion channels was measured.
The pulse protocol consisted of a hyperpolarization of the cell membrane to −100 mV for 5 s and a subsequent gradual depolarization to +100 mV in 20 mV steps.
This protocol was performed before (control) and after the addition of ring-shaped organic molecules. The current dissipations thus obtained were stored and analyzed by means of the program PCLAMP 6.0. For this purpose, the current dissipations obtained in the presence of amiloride were subtracted from the currents recorded earlier so that the amiloride-sensitive sodium current through the epithelial sodium channels could be determined.

Compound | changes in morphology or cell growth (human A549 cells) | death of cells (human A549 cells) | activation of the vectorial ionic current compared with known peptides SEQ ID NO: 10, 11 and 12 ([1]; patch-clamp, comparison in words) | Activity in comparison to a peptide SEQ ID NO: 10 CGQRETPEGAEKPWYC ("TIP-Peptid", Lucas et al. Science 1994 also WO00/09149) [1] [%]
[6-amino-hexanoic acid-GQRETPEGAEAKPWYG] (cyclo 1-17) [SEQ ID NO: 8] | did not produce any changes in morphology or cell growth | did not result in the death of cells | significantly higher activations of the vectorial ionic current | 150
C[C@@H]1NC(=O)CNC(=O)[C@H](CCC(=O)O)NC(=O)[C@@H]2CCCN2C(=O)[C@H]([C@@H](C)O)NC(=O)[C@H](CCC(=O)O)NC(=O)[C@H](CCCNC(=N)N)NC(=O)[C@H](CCC(N)=O)NC(=O)CNC(=O)[C@@H](N)CCCCNC(=O)CNC(=O)[C@H](Cc2ccc(O)cc2)NC(=O)[C@H](Cc2c[nH]c3ccccc23)NC(=O)[C@@H]2CCCN2C(=O)[C@H](CCCCN)NC(=O)[C@H](C)NC(=O)[C@H](CCC(=O)O)NC1=O [SEQ ID NO: 1, [KGQRETPEGAEAKPWYG] (cyclo Kepsilon1-G17)] | did not produce any changes in morphology or cell growth | did not result in the death of cells | – | 150
C[C@@H]1NC(=O)CNC(=O)[C@H](CCC(=O)O)NC(=O)[C@@H]2CCCN2C(=O)[C@H]([C@@H](C)O)NC(=O)[C@H](CCC(=O)O)NC(=O)[C@H](CCCNC(=N)N)NC(=O)[C@H](CCC(N)=O)NC(=O)CNC(=O)[C@@H](N)CCCNC(=O)CNC(=O)[C@H](Cc2ccc(O)cc2)NC(=O)[C@H](Cc2c[nH]c3ccccc23)NC(=O)[C@@H]2CCCN2C(=O)[C@H](CCCCN)NC(=O)[C@H](C)NC(=O)[C@H](CCC(=O)O)NC1=O [SEQ ID NO: 2, [ornithine-GQRETPEGAEAKPWYG] (cyclo Orn-delta1-G17)] | did not produce any changes in morphology or cell growth | did not result in the death of cells | – | 115
C[C@@H]1NC(=O)CNC(=O)[C@H](CCC(=O)O)NC(=O)[C@@H]2CCCN2C(=O)[C@H]([C@@H](C)O)NC(=O)[C@H](CCC(=O)O)NC(=O)[C@H](CCCNC(=N)N)NC(=O)[C@H](CCC(N)=O)NC(=O)CNC(=O)CCNC(=O)CC[C@@H](C(=O)O)NC(=O)[C@H](Cc2ccc(O)cc2)NC(=O)[C@H](Cc2c[nH]c3ccccc23)NC(=O)[C@@H]2CCCN2C(=O)[C@H](CCCCN)NC(=O)[C@H](C)NC(=O)[C@H](CCC(=O)O)NC1=O [SEQ ID NO: 6, [3-amino-propanoic acid-GQRETPEGAEAKPWYE-OH] (cyclo 1-Eδ17)] | did not produce any changes in morphology or cell growth | did not result in the death of cells | – | 150
C[C@@H]1NC(=O)CNC(=O)[C@H](CCC(=O)O)NC(=O)[C@@H]2CCCN2C(=O)[C@H]([C@@H](C)O)NC(=O)[C@H](CCC(=O)O)NC(=O)[C@H](CCCNC(=N)N)NC(=O)[C@H](CCC(N)=O)NC(=O)CNC(=O)CCCNC(=O)C[C@@H](C(=O)O)NC(=O)[C@H](Cc2ccc(O)cc2)NC(=O)[C@H](Cc2c[nH]c3ccccc23)NC(=O)[C@@H]2CCCN2C(=O)[C@H](CCCCN)NC(=O)[C@H](C)NC(=O)[C@H](CCC(=O)O)NC1=O [SEQ ID NO: 5, [gamma-aminobutyric acid-GQRETPEGAEAKPWYD-OH] (cyclo 1-Dγ17)] | did not produce any changes in morphology or cell growth | did not result in the death of cells | – | 160
C[C@@H]1NC(=O)CNC(=O)[C@H](CCC(=O)O)NC(=O)[C@@H]2CCCN2C(=O)[C@H]([C@@H](C)O)NC(=O)[C@H](CCC(=O)O)NC(=O)[C@H](CCCNC(=N)N)NC(=O)[C@H](CCC(N)=O)NC(=O)CNC(=O)CCCCCCNC(=O)[C@H](Cc2ccc(O)cc2)NC(=O)[C@H](Cc2c[nH]c3ccccc23)NC(=O)[C@@H]2CCCN2C(=O)[C@H](CCCCN)NC(=O)[C@H](C)NC(=O)[C@H](CCC(=O)O)NC1=O [SEQ ID NO: 7, [7-amino-heptanoic acid-GQRETPEGAEAKPWY] (cyclo 1-16)] (cyclo(AEAKPWY[Ahp]GQRETPEG)) | did not produce any changes in morphology or cell growth | did not result in the death of cells | – | –
LSPGQRETPEGAEAKPWYE (peptide published in WO 2009/073909) [SEQ ID NO: 12, known peptide from WO2009/073909 (PCT AT2008 448), reference compound] | – | – | – | 60
C[C@@H]1NC(=O)CNC(=O)[C@H](CCC(=O)O)NC(=O)[C@@H]2CCCN2C(=O)[C@H]([C@@H](C)O)NC(=O)[C@H](CCC(=O)O)NC(=O)[C@H](CCCNC(=N)N)NC(=O)[C@H](CCC(N)=O)NC(=O)CNC(=O)CCCCNC(=O)CNC(=O)[C@H](Cc2ccc(O)cc2)NC(=O)[C@H](Cc2c[nH]c3ccccc23)NC(=O)[C@@H]2CCCN2C(=O)[C@H](CCCCN)NC(=O)[C@H](C)NC(=O)[C@H](CCC(=O)O)NC1=O [SEQ ID NO: 3, [5-amino-pentanoic acid-GQRETPEGAEAKPWYG] (cyclo 1-17)] | did not produce any changes in morphology or cell growth | did not result in the death of cells | – | –
C[C@@H]1NC(=O)CNC(=O)[C@H](CCC(=O)O)NC(=O)[C@@H]2CCCN2C(=O)[C@H]([C@@H](C)O)NC(=O)[C@H](CCC(=O)O)NC(=O)[C@H](CCCNC(=N)N)NC(=O)[C@H](CCC(N)=O)NC(=O)CNC(=O)CCCNC(=O)CNC(=O)[C@H](Cc2ccc(O)cc2)NC(=O)[C@H](Cc2c[nH]c3ccccc23)NC(=O)[C@@H]2CCCN2C(=O)[C@H](CCCCN)NC(=O)[C@H](C)NC(=O)[C@H](CCC(=O)O)NC1=O [SEQ ID NO: 4, [gamma-aminobutyric acid-GQRETPEGAEAKPWYG] (cyclo 1-17)] | did not produce any changes in morphology or cell growth | did not result in the death of cells | – | –
CGTKPIELGPDEPKAVC (peptide published in EP 2 009 023) [SEQ ID NO: 11, known peptide for controlling fluid content in the alveoli, from EP 2 009 023, reference compound] | – | – | – | 80
